Data reported in patent publication US20240156767A1, “SCREENING METHOD FOR GLP-1 SECRETION REGULATION AGENT, GLP-1 SECRETION REGULATION AGENT, COMPOSITION FOR PREVENTING OR AMELIORATING DIABETES, OBESITY, POSTPRANDIAL HYPERGLYCEMIA, NEURODEGENERATIVE DISEASE, HYPOGLYCEMIA, ADIPOSITY, OR NESIDIOBLASTOSIS, METHOD FOR PROMOTING SECRETION OF GLP-1 IN …” (The Nisshin OilliO Group, Ltd., priority 2021, published 2024).

Tested on: C57BL/6 male mice
Experiment: Glucose tolerance test in mice with triacylglycerols: plasma GLP-1 concentration (ELISA)
Assay type: in vivo
Conditions: 300 μl sample oral per mouse; glucose 2.5 g/kg 60 minutes after sample; blood 30 minutes after glucose; mean±standard error
Description: A glucose tolerance test was carried out by the following method to examine effects of administration of triacylglycerol to mice on the plasma GLP-1 secretion during glucose tolerance.
To the PBS solution (10 ml) obtained in the same manner as in the (1-1) above, 50 mg of carboxymethyl cellulose (trade name “Carboxymethyl cellulose sodium”, manufactured by FUJIFILM Wako Pure Chemical Industries, Ltd.) was added and mixed to obtain a carrier solution. To the obtained carrier solution, 2 g of triacylglycerol (trade name “Tridecanoin <Tricaprin>”, manufactured by New Check Prep Co., Ltd.) in which the constituent fatty acids were all capric acid was added and mixed while heating to obtain TriC10 sample.
A carrier solution was obtained in the same manner as in the (1-2) above. […]
Plasma was prepared from the obtained blood by a conventional method, and the plasma GLP-1 concentration (pM) was measured. Note here that the plasma GLP-1 concentration was measured by ELISA using a commercially available kit (trade name “Glucagon Like Peptide-1 (Active) ELISA”, manufactured by Sigma-Aldrich). […]

CCCCCCCCCC(=O)OCC(COC(=O)CCCCCCCCC)OC(=O)CCCCCCCCC [TriC10, Tridecanoin <Tricaprin>]
GLP-1 CONCENTRATION (plasma): 2.803 ± 0.952 pM
